Measured values as given in PMC8513079 (Molecules, 2021).
“Also recorded” adds a separate entry of the source. Like-named read-outs stand apart in the source and are kept apart here.

Legend:
[1] = molecular target: T1, MOR/DOR heteromer (Halotag-MOR/T7-tag-DOR) in HEK293 cells (Homo sapiens, UniProt P35372+P41143); experiment: cADDis cAMP assay, MOR/DOR heteromer; format: cell-based
T1 construct: HaloTag; T7-tag; expressed in transfected cells

[2] = molecular target: T2, DOR (T7-tag-DOR) in HEK293 cells (Homo sapiens, UniProt P41143); experiment: cADDis cAMP assay, DOR; format: cell-based
T2 construct: T7-tag; expressed in transfected cells

[3] = system: DOR (CHO-K1 OPRD1); experiment: PathHunter β-arrestin recruitment assay, DOR; format: cell-based; conditions: 37 °C; for β-arrestin recruitment, DOR, in words: PathHunter, compared with 10^−5 M SNC-80, 90 min, n = 3–6
[4] = molecular target: T3, KOR (Halotag-KOR) in HEK293 cells (Homo sapiens, UniProt P41145); experiment: CellKey impedance assay, antagonist mode, KOR; format: cell-based; conditions: combined with U-50488H (10^−11–10^−5 M); negative control at 10^−5 concentration; n = 3–4
T3 construct: HaloTag; expressed in transfected cells

[5] = system: DOR; experiment: G-protein bias at DOR, cADDis cAMP versus PathHunter β-arrestin; format: cell-based; conditions: concluded from cADDis cAMP and PathHunter β-arrestin assays
[6] = molecular target: T3, KOR (Halotag-KOR) in HEK293 cells; experiment: cell-based; conditions: HEK293, read-out: Emax, cAMP assay, KOR (Table 1)
[7] = molecular target: MOR (Halotag-MOR) in HEK293 cells (Homo sapiens, UniProt P35372); experiment: cell-based; format: cell-based
[8] = system: DOR; conditions: rubiscolin-5 compared with rubiscolin-6; cited from earlier work
Description: (§1) In view of the results of our cAMP assay, rubiscolins can be considered DOR-biased agonists, consistent with previous reports. […] Indeed, there is a structural ...

[9] = rubiscolin-6 versus rubiscolin-5; cited from earlier work
Description: as §1

[10] = system: receptor; conditions: rubiscolin-6 versus rubiscolin-5; cited from earlier work
Description: as §1

[11] = system: MOR (OPRM1); experiment: PathHunter β-arrestin recruitment assay, MOR; format: cell-based; conditions: compared with 10^−5 M DAMGO, 90 min, 37 °C, n = 3–6
[12] = HEK293, read-out: Emax, cAMP assay, MOR (Table 1)
[13] = HEK293, read-out: Emax, cAMP assay, MOR (Table 2)
[14] = HEK293, read-out: Emax, cAMP assay, DOR (Table 1)
[15] = HEK293, read-out: Emax, cAMP assay, DOR (Table 2)
[16] = cADDis cAMP assay, HEK293 T7-tag-DOR

T2 sequence (P41143 whole entry): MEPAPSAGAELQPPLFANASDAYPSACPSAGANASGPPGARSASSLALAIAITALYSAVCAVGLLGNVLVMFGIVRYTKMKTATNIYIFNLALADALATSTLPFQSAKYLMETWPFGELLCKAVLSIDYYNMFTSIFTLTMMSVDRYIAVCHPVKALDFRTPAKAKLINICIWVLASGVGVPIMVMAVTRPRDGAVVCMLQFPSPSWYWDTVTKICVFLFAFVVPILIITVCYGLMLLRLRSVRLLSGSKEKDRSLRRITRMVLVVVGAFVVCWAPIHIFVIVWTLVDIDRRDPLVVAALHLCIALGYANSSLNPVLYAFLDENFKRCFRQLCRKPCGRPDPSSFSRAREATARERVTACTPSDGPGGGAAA
T3 sequence (P41145 whole entry): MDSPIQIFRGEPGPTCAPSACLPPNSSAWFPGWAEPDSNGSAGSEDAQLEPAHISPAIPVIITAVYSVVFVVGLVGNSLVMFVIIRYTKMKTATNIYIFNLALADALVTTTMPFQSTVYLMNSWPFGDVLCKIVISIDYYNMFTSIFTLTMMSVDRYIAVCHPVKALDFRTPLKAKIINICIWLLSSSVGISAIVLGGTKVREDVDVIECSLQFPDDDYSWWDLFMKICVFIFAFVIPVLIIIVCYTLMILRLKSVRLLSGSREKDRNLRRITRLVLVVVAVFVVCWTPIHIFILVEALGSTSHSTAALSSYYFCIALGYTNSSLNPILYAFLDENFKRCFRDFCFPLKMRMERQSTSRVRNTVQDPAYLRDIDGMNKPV
T1 sequence (P35372 whole entry): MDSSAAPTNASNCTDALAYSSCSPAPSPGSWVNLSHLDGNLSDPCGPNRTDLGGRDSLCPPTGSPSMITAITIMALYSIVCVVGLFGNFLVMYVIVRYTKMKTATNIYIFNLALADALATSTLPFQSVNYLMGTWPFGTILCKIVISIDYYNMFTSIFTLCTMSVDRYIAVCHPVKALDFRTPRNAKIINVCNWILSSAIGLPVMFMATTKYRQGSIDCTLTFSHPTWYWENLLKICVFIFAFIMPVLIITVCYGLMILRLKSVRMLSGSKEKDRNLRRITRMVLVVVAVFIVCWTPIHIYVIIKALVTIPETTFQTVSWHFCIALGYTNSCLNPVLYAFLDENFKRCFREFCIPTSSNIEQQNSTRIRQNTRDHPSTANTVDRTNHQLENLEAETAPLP
T1 sequence (P41143 whole entry): as the sequence (P41143 whole entry) above
Sequence of MOR (Halotag-MOR) in HEK293 cells (P35372 whole entry): as the sequence (P35372 whole entry) above

Molecule: C[C@@H](NC(=O)[C@@H](N)Cc1ccc(O)cc1)C(=O)NCC(=O)N(C)[C@@H](Cc1ccccc1)C(=O)NCCO [DAMGO, D-Ala(2)-N-Me-Phe(4)-Gly-ol(5)-enkephalin, reference compound]
- Emax ([1]; relative to 10^−5 M ML335, cADDis sensor, 50 μM forskolin, 28 °C, 40 min reading, 10^−11–10^−5 M, means ± S.E.M. (n = 6–8), Figure 6, + p < 0.05 vs ML335, read-out: Emax, cAMP assay, MOR/DOR (Table 2)): 91.1 ± 5.4%
- Emax ([2]; HEK293; read-out: Emax, cAMP assay, DOR (Table 1)): 90.9 ± 8.9%
- Emax ([2]; HEK293; read-out: Emax, cAMP assay, DOR (Table 2)): 90.9 ± 8.9%

Molecule: C=CCN1C[C@H](C)N([C@H](c2ccc(C(=O)N(CC)CC)cc2)c2cccc(OC)c2)C[C@H]1C [SNC-80, (+)-4-[(aR)-a-((2S,5R)-4-allyl-2,5-dimethyl-1-piperazinyl)-3-methoxybenzyl]-N,N-diethylbenzamide, reference compound]
- Emax, β-arrestin recruitment, DOR ([3]; relative to 10^−5 M SNC-80, 90 min stimulation, luminescence, 10^−11–10^−5 M, means ± S.E.M. (n = 3–6), Figure 5B): 100.0 ± 2.6%

Molecule: Oc1ccc2c3c1O[C@H]1c4[nH]c5c(c4C[C@@]4(O)[C@@H](C2)N(CC2CC2)CC[C@]314)C[C@@]1(O)[C@H]2Cc3ccc(O)c4c3[C@@]1(CCN2CC1CC1)[C@H]5O4 [norBNI, norbinaltorphimine]
- antagonistic effect, CellKey, KOR [4]: completely suppressed the agonistic effects of the positive control

Molecule: H-YPLDL-OH [Rubiscolin-5, H-Tyr-Pro-Leu-Asp-Leu-OH]
- β-arrestin recruitment, DOR, in words [3]: the most irrelevant with regard to the activity through the β-arrestin-mediated pathway; also recorded: equivalently negligible
- G-protein bias / agonist type at DOR [5]: G-protein-biased DOR full agonists without affecting MOR and KOR
- Emax [6]: 9.6 ± 9%
- Emax [7, 12]: 27.5 ± 5.5%
- Emax [7, 13]: 27.5 ± 5.5%
- G-protein bias (bias factor), previous study [8]: more G-protein-biased than rubiscolin-6
- EC50 [2]: 501 nM
- Emax [2, 14]: 78.4 ± 6.7%
- Emax [2, 15]: 78.4 ± 6.7%

Molecule: H-YPLDLF-OH [Rubiscolin-6, H-Tyr-Pro-Leu-Asp-Leu-Phe-OH]
- β-arrestin recruitment, DOR, in words [3]: the most irrelevant with regard to the activity through the β-arrestin-mediated pathway; also recorded: equivalently negligible
- G-protein bias / agonist type at DOR [5]: G-protein-biased DOR full agonists without affecting MOR and KOR
- Emax [6]: 39.8 ± 20.5%
- Emax [7, 12]: 14.3 ± 3.2%
- Emax [7, 13]: 14.3 ± 3.2%
- potency in analgesia relative to rubiscolin-5 [9]: about twice as potent in analgesia as rubiscolin-5
- receptor affinity relative to rubiscolin-5 [10]: higher receptor affinity
- EC50 [2]: 316 nM
- Emax [2, 14]: 103 ± 4.1%
- Emax [2, 15]: 103 ± 4.1%
- effect through G-protein-mediated pathway (cAMP), DOR, in words [2, 16]: robust effect on DOR at 10^−5 concentration; also recorded: relatively stronger than rubiscolin-5 in activating the G-protein-mediated intracellular pathway

Molecule: ML335 [reference compound]
- β-arrestin recruitment, DOR, in words [3]: partially recruited β-arrestin through both MOR and DOR
- pEC50, cAMP assay, MOR/DOR (Table 2) ([1]; -LogEC50, means ± S.E.M. (n = 6–8), Figure 6, + p < 0.05 vs ML335): 7.0 ± 0.1 M
- effect through G-protein-mediated pathway (cAMP), MOR/DOR heteromer, in words ([1]; cADDis cAMP assay, compared with ML335): full agonist of MOR/DOR
- Emax, cAMP assay, MOR/DOR (Table 2) ([1]; relative to 10^−5 M ML335, cADDis sensor, 50 μM forskolin, 28 °C, 40 min reading, 10^−11–10^−5 M, means ± S.E.M. (n = 6–8), Figure 6, + p < 0.05 vs ML335): 100.0 ± 4.2%
- Emax, cAMP assay, MOR (Table 2) [7]: 112.5 ± 5.3%
- effect through G-protein-mediated pathway (cAMP), MOR, in words [7]: full agonist for both MOR and DOR
- pEC50, cAMP assay, MOR (Table 2) [7]: 7.6 ± 0.1 M
- β-arrestin recruitment, MOR, in words [11]: partially recruited β-arrestin through both MOR and DOR
- pEC50, cAMP assay, DOR (Table 2) ([2]; -LogEC50; HEK293 T7-tag-DOR; means ± S.E.M. (n = 6–8), Figure 6; # p < 0.05 vs SNC-80): 7.5 ± 0.1 ^# M
- effect through G-protein-mediated pathway (cAMP), DOR, in words [2, 16]: full agonist for both MOR and DOR
- Emax, cAMP assay, DOR (Table 2) ([2]; relative to 10^−5 M SNC-80; HEK293 T7-tag-DOR; forskolin-stimulated; 10^−11–10^−5 M; means ± S.E.M. (n = 6–8), Figure 6; # p < 0.05 vs SNC-80): 111.6 ± 3.6%
